The source of these data is patent US20220218834A1, “APOHEMOGLOBIN-HAPTOGLOBIN COMPLEXES AND METHODS OF USING THEREOF” (OHIO STATE INNOVATION FOUNDATION, priority 2019, published 2022).

In data set [1] the test system is cancerous cells (4T1, MDA-MB-231). Type of data set: cell-based. The note with it: without laser irradiation (dark). The method, then:
(§1) Cell Culture. Cancerous (4T1 [murine] and MDA-MB-231 [human]) and noncancerous (NOR-10 [murine] and MCF-10A [human]) cell lines were purchased from American Type Culture Collection (ATCC, Manassas, Va.). All cells were cultured in DMEM, and supplemented with 10% (v:v) fetal bovine serum and 1% (v:v) antibiotic solution (100 IU/mL penicillin and […]). All cells were maintained at 37° C. in 5% CO2 and in a humidified atmosphere.
(§2) PDT. For PDT, 4T1, MDA-MB-231, NOR-10, and MCF-10A cells were cultured for 24 hours at a density of 5×10^3 on coverslips. Next, cells were exposed to Al-PC, apoHb-Al-PC-Hp, and apoHb-Hp in culture medium at different concentrations. Later, the cells were irradiated with a laser (λ=670 nm) at energy densities between 0.0 J/cm2 and 4 J/cm2 for 15 minutes in the dark.
(§3) Cell Viability. Cell viability was assessed using the MTT assay, which is converted by the mitochondria of viable cells to an insoluble purple precipitate. Briefly, after receiving their treatment, cells were washed with PBS twice and then incubated with 0.5 mg/mL of MTT in culture medium for 2 hours. Then, the MTT solution was washed away, and the purple precipitate was extracted from the cells with 150 μL of dimethyl sulfoxide (DMSO). The absorption was then measured at λ=595 nm using a spectrophotometer (Spectramax; Molecular Devices).

The subject of data set [2] is normal cells (NOR-10, MCF 10A). Description: Cell viability (MTT) without laser irradiation, normal cells. It is filed as cell-based, murine and human. The note with it: without laser irradiation (dark). As for the experimental part: as §1, §2, §3
A short description of data set [3]: O2 equilibrium binding curves of rHb and native Hb (Hemox analyzer). Type of data set: biochemical. The note with it: 37° C.; for P50: O2 affinity; for N (cooperativity coefficient n): O2 equilibrium. As for the experimental part:
rHb Analysis. Various liganded forms of rHb were analyzed via UV-Vis spectroscopy and compared against native Hb. The oxy-rHb and oxyHb equilibrium binding curves were measured using a Hemox analyzer (TCS Scientific Corp., New Hope, Pa.) at 37° C. The spectra of rHb was measured after one day reaction with excess heme (stage 1), after reduction and diafiltration with the modified HEMOX buffer (stage 2), after placing the rHb mixture under a CO atmosphere (stage 3), after heating the CO-rHb mixture and removing precipitate (stage 4), and after re-oxygenating the rHb sample (stage 5). Spectral deconvolution software was developed in the Python programming language (Python Software Foundation Beaverton, Oreg.) using the non-linear least squares function curve_fit of the SciPy package to determine the fraction of various liganded forms of rHb that contribute to the final spectra of the rHb mixture (i.e. containing metHb, hemichrome, oxyHb, HbCO and heme).

Data set [4] can be described thus: O2-Hb/PolyHb equilibrium binding curves (Hemox Analyzer). Type of data set: biochemical. An excerpt:
(§4) The Hb used in this exampler was purified from human RBCs via tangential flow filtration (TFF), as described previously. Hb was polymerized with glutaraldehyde under complete deoxygenation in the tense (T) quaternary state at a 25:1 molar ratio of glutaraldehyde to Hb. After polymerization, PolyHb was clarified, purified, and buffer exchanged into a modified Ringer's lactate solution using TFF. Modified polyester sulfone hollow fiber filters with a molecular weight cutoff (MWCO) of 100 kDa were used to remove unpolymerized Hb from solution. The PolyHb solution was concentrated to 12 g/dL. […] The size distribution of PolyHb, by particle volume, was measured using dynamic light scattering (DLS) (Brookhaven Instrument Inc. BS-200M, Holtsville, N.Y.). The rheology of PolyHb solutions was measured using a DV3T-CP cone and plate rheometer (Brookfield AMETEK, Middleboro, Mass.) with cone spindle CPA-40Z. The O2-Hb/PolyHb equilibrium binding curves were measured using a Hemox Analyzer (TCS Scientific Corp., New Hope, Pa.). The Hb/PolyHb kinetics of O2 offloading (koff,O2) and NO dioxygenation kinetics (kox,NO) were measured with an Applied Photophysics SF-17 microvolume stopped-flow spectrophotometer (Applied Photophysics Ltd., Surrey, United Kingdom) using protocols previously described by Rameez and Palmer. […]

Data set [5] in a line: Hb/PolyHb NO dioxygenation kinetics, stopped-flow. Type of data set: biochemical. The note with it: 20° C., 0.1 M pH 7.4 PBS.
Excerpt: as §4

Data set [6] is described as follows: Rheology of PolyHb solutions (cone and plate rheometer). Type of data set: physicochemical.
Excerpt: as §4

Data set [7] relates to Hp. As to the kind of experiment: Kinetics of Hp binding to Hb and PolyHb, stopped-flow fluorescence. Set-up: species or system human. The note with it: 20° C., PBS 0.1 M pH 7.4. The method, then:
The Hp used for this study was purified from human Cohn Fraction IV derived from pooled human plasma. The resulting Hp contained both Hp2-1 and Hp2-2 phenotypes. The total amount of protein in solution was estimated with a Bradford assay. The Hb binding capacity of Hp was assessed by monitoring Hb binding to Hp at 413 nm with HPLC-SEC and was used to quantify the concentration of Hp. The reaction of Hp with either unmodified human Hb or PolyHb synthesized in this study was monitored using an SX-20 stopped stopped-flow spectrophotometer using previously described methods (Applied Photophysics, Leatherhead, UK). Excess Hp (2:1, Hp:PolyhHb on a Hb tetramer binding basis) was allowed to react with PolyHb to form the resulting Hp-PolyHb complex. The resulting changes in size distribution after Hp binding was estimated with HPLC-SEC using previously described methods. All measurements were taken from the same sample used in the animal study.
Target sequence in this assay (P00738 162-406 limits assumed): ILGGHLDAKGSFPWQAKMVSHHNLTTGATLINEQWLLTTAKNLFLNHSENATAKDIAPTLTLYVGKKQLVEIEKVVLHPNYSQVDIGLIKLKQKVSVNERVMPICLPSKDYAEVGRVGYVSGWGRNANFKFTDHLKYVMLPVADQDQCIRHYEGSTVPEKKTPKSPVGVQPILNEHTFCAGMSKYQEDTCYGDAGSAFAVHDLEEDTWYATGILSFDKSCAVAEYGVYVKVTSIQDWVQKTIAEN

The nature of data set [8]: Specificity of Al-PC binding to proteins (UV-visible absorbance at 680 nm). The note with it: absorbance at 680 nm after Al-PC addition in PBS.
Experimental: The stock Al-PC solution was diluted 100× into 100% EtOH.
The concentrations of Hp, HSA, Hb and rHb in solution were 1.0 mg/mL, 0.35 mg/ml (and 3.5 mg/ml), 0.35 mg/mL, and 0.33 mg/mL respectively.
Data set [9] has as its system Hp. The note with it: cited from earlier work.
Target sequence in this assay (P00738 162-406 limits assumed): as above
The conditions of data set [10]: unit not given; cited from earlier work.
Data set [11] can be described thus: Stability of apoHb-Al-PC on dialysis against PBS. It is filed as physicochemical. As for the experimental part: Stability of ApoHb-Al-PC. […] The sample was then dialyzed against PBS using 6-8 kDa cellulose dialysis membranes to remove any residual EtOH. Dialysis was performed over three days with daily exchange of the PBS buffer. The UV-visible absorbance spectra of samples were measured before and after dialysis.

For data set [12], the system named is Hp. As to the kind of experiment: HPLC-SEC of apoHb-Mn-IX binding to Hp. Set-up: species or system human. The note with it: excess apoHb, detection of Mn-IX. The method, then: Diagnostic/therapeutic solutions tested here consisted of either Mn-porphyrin IX chloride (Mn-IX) or aluminum phthalocyanine (Al-PC) chloride. The Mn-IX solution was made by dissolving 2.5 mg of Mn-IX in 0.5 mL of 0.1 M NaOH. For Al-PC, 1 mg of Al-PC was dissolved in 1 mL of pure EtOH, then 50 μL of the saturated solution was diluted into 1 mL of pure EtOH (the second dilution ensured that the Al-PC is monomeric in solution). […] From the stock diagnostic/therapeutic solutions, either 2 μl of the stock Mn-IX or 100 μl of the Al-PC solutions was added to the protein samples. The resultant mixtures had their absorbance spectras measured via UV-visible spectroscopy and were separated via size exclusion chromatography (SEC) using an Acclaim SEC-1000 (4.6×300 mm) column (Thermo Fisher Scientific, Waltham, Mass.) attached to a Dionex UltiMate 3000 system (Thermo Fisher Scientific, Waltham, Mass.). The mobile phase consisted of 50 mM potassium phosphate, pH 7.4.
Target sequence in this assay (P00738 19-160 limits assumed): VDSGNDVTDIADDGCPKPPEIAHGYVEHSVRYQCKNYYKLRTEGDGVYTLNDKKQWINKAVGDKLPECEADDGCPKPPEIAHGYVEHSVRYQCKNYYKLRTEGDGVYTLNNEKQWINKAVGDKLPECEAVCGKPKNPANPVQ
Target sequence in this assay (P00738 162-406 limits assumed): as the sequence (P00738 162-406 limits assumed) above
Target sequence in this assay (P69905 2-142 partner limits assumed): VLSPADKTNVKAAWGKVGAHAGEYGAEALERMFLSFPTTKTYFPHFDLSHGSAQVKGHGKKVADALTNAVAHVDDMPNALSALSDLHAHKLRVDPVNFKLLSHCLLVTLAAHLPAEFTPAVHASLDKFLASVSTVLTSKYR
Target sequence in this assay (P68871 2-147 partner limits assumed): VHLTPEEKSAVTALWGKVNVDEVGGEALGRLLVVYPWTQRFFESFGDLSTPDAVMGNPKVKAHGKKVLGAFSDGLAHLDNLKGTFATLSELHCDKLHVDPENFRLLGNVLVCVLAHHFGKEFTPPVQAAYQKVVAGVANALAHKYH

Take `[Cl][Al]1[n]2c3c4ccccc4c2N=C2N=C(N=c4c5ccccc5c([n]41)=NC1=NC(=N3)c3ccccc31)c1ccccc12` [Al-PC, aluminum phthalocyanine chloride]: the “lethal dose for 50% cell-death (LD50)” value in data set [1] came to 7 µM; in data set [2] it was 10 µM.
As for “hHb: human hemoglobin prepared from red blood cells via tangential flow filtration [reference compound]”, in data set [3], the P50 turned out to be 11.69 ± 0.88 mm Hg and the “N (cooperativity coefficient n)” value was 2.73 ± 0.11^. Besides, in data set [3] (listed as Native hHb), the P50 turned out to be 11.33±0.02 mm Hg and the “N (cooperativity coefficient n)” value is given as 2.60±0.01. Moreover, in data set [3] (listed as native Hb), the P50 is 11.69±0.88 mm Hg and the “N (cooperativity coefficient n)” value is 2.73±0.11. Also, in [4], the cooperativity n turned out to be 2.51±0.06 and the “oxygen affinity P50” value is recorded as 12.4±1.3 mm Hg. Also, in data set [5], the “rate of NO dioxygenation kox,NO” value was found to be 36.0±6.1. Also, in data set [6], the viscosity is reported as 1.2±0.2 cP. In addition, the “rate constant of Hp binding” value in [7] was found to be 150000 ± 1000 M⁻¹ s⁻¹. The Al-PC binding result in [8] is recorded as “no appreciable binding of Al-PC”. Further, the “rate constant of Hp binding, literature” value in [9] is 129000 M⁻¹ s⁻¹.
In the case of “Hb in human RBCs: Hb in human red blood cells, literature O2 affinity”, the “O2 affinity P50, literature” value in [10] is on record as 29.3.
Turning to apoHb-Al-PC: Al-PC bound to apoHb, the “stability in aqueous solution” value in data set [11] is reported as “not stable in aqueous solution”.
With “apoHb-Mn-IX: Mn-porphyrin IX bound to apoHb”, the “affinity of Hp” value in data set [12] is “higher affinity for apoHb-Mn-IX than to pure apoHb”.

What is called viscosity is the resistance of a fluid to flow. High values mean a thick fluid, low ones a thin fluid.
